From patent publication US12043602B2, “Fendiline derivatives” (The Board of Regents of the University of Texas System, priority 2019, dated 2024) come the findings set out here.

One data set concerns the target mGFP-K-RASG12V (Homo sapiens (Human), UniProt P01116, G12V). Nature of the data set: K-Ras mislocalization assay (confocal microscopy, Manders coefficient). The class given is cell-based. More on the design: key to Emax: Manders coefficient: fraction of mCherry-CAAX co-localizing with GFP-K-Ras. The note with it: MDCK cells; for Emax: maximal effect, Manders coefficient; for IC50: 48 h treatment, read-out: IC50 (μM), KRASG12V mislocalization. The method in brief: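 MDCK cells stably co-expressing mGFP-K-RASG12V and mCherry-CAAX (endomembrane marker) treated with compound or 0.1% DMSO for 48 h, fixed in 4% paraformaldehyde, imaged by confocal microscopy. Mislocalization quantified as the fraction of mCherry-CAAX co-localizing with mGFP-K-RASG12V (Manders coefficient) after 8-bit thresholding.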

In data set [1] the test system is MDCK cells co-expressing GFP-K-RASG12V and mCherry-CAAX. Kind of data set: Cytotoxicity in mislocalization screen (death of all cells in well). Particulars: drug caused death of all cells in well at 30 μM.

Each structure is given as a SMILES string. Read-outs that look alike come from different tables or passages of the source.

As to `COC(=O)[C@@H](c1ccccc1)N(CC=C(c1ccccc1)c1ccccc1)CC=C(c1ccccc1)c1ccccc1` [NY055101, methyl (R)-2-(bis(3,3-diphenylallyl)amino)-2-phenylacetate], at mGFP-K-RASG12V (batch 4 compounds, 48 h, title calls it IC50, read-out: EC50), the EC50 is 8.91 µM. In addition, on mGFP-K-RASG12V (48 h), the Emax is 0.424. In addition, the “Cytotoxic at 30 μM” value in data set [1] is listed as “Yes”.

For `COC(=O)[C@H](NCC=C(c1ccccc1)c1ccccc1)c1ccccc1` [NY055102, Methyl (R)-2-((3,3-diphenylallyl)amino)-2-phenylacetate], the Emax on mGFP-K-RASG12V (48 h) is 0.424. Besides, in data set [1], the “Cytotoxic at 30 μM” value is given as “No”.

In the case of `COc1ccc([C@@H](C)N(CC=C(c2ccccc2)c2ccccc2)C(=O)CN2CCCC2)cc1` [PW124, (R)-N-(3,3-diphenylallyl)-N-(1-(4-methoxyphenyl)ethyl)-2-(pyrrolidin-1-yl)acetamide], the IC50 at mGFP-K-RASG12V came to 0.553 µM. The same molecule displayed an Emax at mGFP-K-RASG12V (48 h) of 0.452. Further, the “Cytotoxic at 30 μM” value in data set [1] is on record as “Yes”.

As for `COc1ccc([C@@H](C)N(CC=C(c2ccccc2)c2ccccc2)C(=O)CN2CCN(C)CC2)cc1` [PW125, (R)-N-(3,3-diphenylallyl)-N-(1-(4-methoxyphenyl)ethyl)-2-(4-methylpiperazin-1-yl)acetamide], the IC50 on mGFP-K-RASG12V (listed as 20) stood at 7.1 µM; on mGFP-K-RASG12V, 7.09 µM. Further, the Emax amounted to 0.514 on mGFP-K-RASG12V (48 h) and 0.51 ± 0.02 on mGFP-K-RASG12V (48 h, listed as 20). The “Cytotoxic at 30 μM” value in data set [1] is listed as “Yes”.

With `COc1ccc([C@@H](C)N(CC=C(c2ccccc2)c2ccccc2)C(=O)CN2CCC(O)CC2)cc1` [PW126, (R)-N-(3,3-diphenylallyl)-2-(4-hydroxypiperidin-1-yl)-N-(1-(4-methoxyphenyl)ethyl)acetamide], the IC50 on mGFP-K-RASG12V was 2.19 µM. Moreover, the Emax on mGFP-K-RASG12V (48 h) stood at 0.412. Moreover, the “Cytotoxic at 30 μM” value in data set [1] was “Yes”.

`O=C(c1ccc(F)cc1)N(CC=C(c1ccccc1)c1ccccc1)CCN1CCCC1` [PW276, N-(3,3-diphenylallyl)-4-fluoro-N-(2-(pyrrolidin-1-yl)ethyl)benzamide]: the IC50 on mGFP-K-RASG12V was 4.8 µM. On mGFP-K-RASG12V (48 h), this molecule displayed an Emax of 0.572. The “Cytotoxic at 30 μM” value in data set [1] is “Yes”.

Consider `O=S(=O)(c1ccc(F)cc1)N(CC=C(c1ccccc1)c1ccccc1)CCN1CCCC1` [PW277, N-(3,3-diphenylallyl)-4-fluoro-N-(2-(pyrrolidin-1-yl)ethyl)benzenesulfonamide], for which the 50% inhibitory concentration (IC50) at mGFP-K-RASG12V stood at 3.97 µM. The molecule further had an Emax on mGFP-K-RASG12V (48 h) of 0.592. Besides, in data set [1], the “Cytotoxic at 30 μM” value is on record as “Yes”.

As for `Fc1ccc(CN(CC=C(c2ccccc2)c2ccccc2)CCN2CCCC2)cc1` [PW278, N-(4-fluorobenzyl)-3,3-diphenyl-N-(2-(pyrrolidin-1-yl)ethyl)prop-2-en-1-amine], the IC50 at mGFP-K-RASG12V was 8.85 µM. Moreover, the Emax on mGFP-K-RASG12V (48 h) is 0.739. Further, in data set [1], the “Cytotoxic at 30 μM” value was “Yes”.

On to `O=C(Nc1ccc(F)cc1)N(CC=C(c1ccccc1)c1ccccc1)CCN1CCCC1` [PW279, 1-(3,3-diphenylallyl)-3-(4-fluorophenyl)-1-(2-(pyrrolidin-1-yl)ethyl)urea], for which the IC50 at mGFP-K-RASG12V is 3.4 µM. On mGFP-K-RASG12V (48 h), this molecule registered an Emax of 0.608. Moreover, the “Cytotoxic at 30 μM” value in data set [1] is given as “Yes”.

Regarding `O=C(OCc1ccccc1)N(CC=C(c1ccccc1)c1ccccc1)CCN1CCCC1` [PW280, benzyl (3,3-diphenylallyl)(2-(pyrrolidin-1-yl)ethyl)carbamate], on mGFP-K-RASG12V, the IC50 came to 6.03 µM. Moreover, on mGFP-K-RASG12V (48 h), the Emax was found to be 0.709. In addition, in data set [1], the “Cytotoxic at 30 μM” value is “Yes”.

Take `Nc1nccnc1C(=O)N(CC=C(c1ccccc1)c1ccccc1)CCN1CCCC1` [PW282, 3-amino-N-(3,3-diphenylallyl)-N-(2-(pyrrolidin-1-yl)ethyl)pyrazine-2-carboxamide]: the IC50 at mGFP-K-RASG12V worked out at 12.5 µM. At mGFP-K-RASG12V (48 h), the Emax stood at 0.592. Besides, the “Cytotoxic at 30 μM” value in data set [1] was “No”.

As to `O=C(c1cc(-c2ccc(Cl)cc2)on1)N(CC=C(c1ccccc1)c1ccccc1)CCN1CCCC1` [PW283, 5-(4-chlorophenyl)-N-(3,3-diphenylallyl)-N-(2-(pyrrolidin-1-yl)ethyl)isoxazole-3-carboxamide], at mGFP-K-RASG12V (48 h), the Emax came out at 0.324. Also, the “Cytotoxic at 30 μM” value in data set [1] was “Yes”.

Broadly, the EC50 is the concentration giving half of the maximal effect. Broadly, the IC50 is the concentration that gives 50% inhibition.
